Assay results reported in ChEMBL document CHEMBL1129919, “Cyclic homopentapeptides 1. Analogs of tuberactinomycins and capreomycin with activity against vancomycin-resistant enterococci and Pasteurella” (1997).
≈ marks a conversion by molar mass, not a printed value. *1 amine or outer side, *2 acyl side, *3 side chain or, on linkers, in order; H or OH if unused. Where a SMILES comes first, the peptide text is derived from it. Bridges are numbered along the chain shown (N, C = ends). Side-chain parts run from the residue outwards. [ ]: non-standard residue; d: D form. The star is where a group is joined. ξ: configuration not given here. NH(4-cHex-phenyl) = c1cc(C2CCCCC2)ccc1N*; X4 = NC1=NCCC([C@H](N[*:1])C(=O)[*:2])N1; ΔAla(Z-3-ureido) = NC(=O)N/C=C(\N)C(=O)O; ΔDap(Z) = O=C(/C(=C/N[*:3])N[*:1])[*:2]; X6 = c1ccc(Cc2ccc(N*)cc2)cc1; β3hOrn = NCCC[C@H](N)CC(=O)*; X7 = c1cc(N2CCCCC2)ccc1N*; Dap = NC[C@H](N)C(=O)O; CO = O=C([*:1])[*:2]; X5 = Clc1cc(N*)ccc1I; ξDap = NCC(N)C(=O)O

What was measured:
Assay type in all cases: functional
Pasteurella multocida = experiment: In vitro antibacterial activity against Pasteurella multocida, expressed as minimum inhibitory concentration (MIC)
Mus musculus [1] = experiment: In vivo activity against Escherichia coli in mice after subcutaneous administration; Range is 8-10 mg/kg; settings: sc, read-out: PD50
Mus musculus [2] = experiment: In vivo activity against Pasteurella multocida in mice after subcutaneous administration; Range is 8-10 mg/kg; settings: sc, read-out: PD50
Escherichia coli = experiment: In vitro antibacterial activity against Escherichia coli, expressed as minimum inhibitory concentration (MIC)
Enterococcus faecium [3] = experiment: In vitro antibacterial activity against Enterococcus faecium (vancomycin, methicillin and ciprofloxacin resistant), expressed as minimum inhibitory concentration (MIC).
Enterococcus faecalis [4] = experiment: In vitro antibacterial activity against Enterococcus faecalis (vancomycin, methicillin and ciprofloxacin resistant), expressed as minimum inhibitory concentration (MIC)
Staphylococcus aureus = experiment: In vitro antibacterial activity against methicillin-resistant Staphylococcus aureus (MRSA), expressed as minimum inhibitory concentration (MIC)
Mus musculus [5] = experiment: In vivo activity against Pasteurella multocida in mice after subcutaneous administration; settings: sc, read-out: PD50
Enterococcus faecium [6] = experiment: Protective dose against both MRSA and vancomycin-resistant Enterococcus faecium.; settings: read-out: PD50
Mus musculus [7] = experiment: In vivo activity against Pasteurella multocida in mice; settings: read-out: PD50
Enterococcus faecalis [8] = experiment: In vitro antibacterial activity against E. faecalis( vancomycin, methicillin and ciprofloxacin resistant), expressed as minimum inhibitory concentration (MIC)

NCCC[C@H](N)CC(=O)NC1CNC(=O)[C@H](C2C[C@@H](O)N=C(N)N2)NC(=O)/C(=C/Nc2ccc(Cl)c(Cl)c2)NC(=O)[C@H](CO)NC(=O)[C@H](CO)NC1=O (stereo partly drawn)
MIC (Pasteurella multocida): 0.78 µg/mL (≈ 0.99 µM) | ED50 (Mus musculus [1]): 10 mg/kg | ED50 (Mus musculus [2]): 10 mg/kg | MIC (Escherichia coli): 12.5 µg/mL (≈ 15.9 µM) | MIC (Enterococcus faecium [3]): 25 µg/mL (≈ 31.7 µM) | MIC (Enterococcus faecalis [4]): 50 µg/mL (≈ 63.5 µM) | MIC (Staphylococcus aureus): 12.5 µg/mL (≈ 15.9 µM)

C[C@@H]1NC(=O)C(N)CNC(=O)[C@H](C2CCN=C(N)N2)NC(=O)/C(=C/Nc2ccc(C3CCCCC3)cc2)NC(=O)[C@H](CNC(=O)C[C@@H](N)CCCN)NC1=O.NCCC[C@H](N)CC(=O)NC[C@@H]1NC(=O)[C@H](CO)NC(=O)C(N)CNC(=O)[C@H](C2CCN=C(N)N2)NC(=O)/C(=C/Nc2ccc(C3CCCCC3)cc2)NC1=O (stereo partly drawn)
MIC (Pasteurella multocida): 0.2 µg/mL | ED50 (Mus musculus [5]): 2 mg/kg | MIC (Escherichia coli): 6.25 µg/mL | MIC (Enterococcus faecium [3]): 6.25 µg/mL | MIC (Enterococcus faecalis [4]): 12.5 µg/mL | MIC (Staphylococcus aureus): 1.56 µg/mL

C[C@@H]1NC(=O)C(N)CNC(=O)[C@H](C2CCN=C(N)N2)NC(=O)/C(=C/Nc2ccc(Cl)c(Cl)c2)NC(=O)[C@H](CNC(=O)C[C@@H](N)CCCN)NC1=O.NCCC[C@H](N)CC(=O)NC[C@@H]1NC(=O)[C@H](CO)NC(=O)C(N)CNC(=O)[C@H](C2CCN=C(N)N2)NC(=O)/C(=C/Nc2ccc(Cl)c(Cl)c2)NC1=O (stereo partly drawn)
MIC (Pasteurella multocida): 0.39 µg/mL | ED50 (Mus musculus [5]): 6 mg/kg | MIC (Escherichia coli): 6.25 µg/mL | MIC (Enterococcus faecium [3]): 12.5 µg/mL | MIC (Enterococcus faecalis [4]): 25 µg/mL | MIC (Staphylococcus aureus): 0.78 µg/mL

NCC[C@@H](O)[C@H](N)CC(=O)NC1CNC(=O)[C@@H](C2CCN=C(N)N2)NC(=O)/C(=C/NC(=O)Nc2ccc(C3CCCC3)cc2Cl)NC(=O)[C@@H](CO)NC(=O)[C@@H](CO)NC1=O (stereo partly drawn)
MIC (Enterococcus faecium [3]): 3.12 µg/mL (≈ 3.61 µM) | MIC (Enterococcus faecalis [4]): 6.25 µg/mL (≈ 7.23 µM) | MIC (Staphylococcus aureus): 3.12 µg/mL (≈ 3.61 µM)

NCCC[C@H](N)CC(=O)NC[C@@H]1NC(=O)[C@H](CO)NC(=O)C(N)CNC(=O)[C@H](C2CCN=C(N)N2)NC(=O)/C(=C/NC(=O)Nc2cc(Cl)c(Cl)c(Cl)c2)NC1=O (stereo partly drawn)
MIC (Pasteurella multocida): 0.2 µg/mL (≈ 0.236 µM) | ED50 (Enterococcus faecium [6]): 3 mg/kg | ED50 (Mus musculus [7]): 4 mg/kg | MIC (Escherichia coli): 12.5 µg/mL (≈ 14.7 µM) | MIC (Enterococcus faecium [3]): 1.56 µg/mL (≈ 1.84 µM) | MIC (Enterococcus faecalis [4]): 3.12 µg/mL (≈ 3.68 µM) | MIC (Staphylococcus aureus): 0.78 µg/mL (≈ 0.92 µM)

C[C@@H]1NC(=O)C(N)CNC(=O)[C@H](C2CCN=C(N)N2)NC(=O)/C(=C/Nc2nc(-c3ccc(Br)cc3)cs2)NC(=O)[C@H](CNC(=O)C[C@@H](N)CCCN)NC1=O.NCCC[C@H](N)CC(=O)NC[C@@H]1NC(=O)[C@H](CO)NC(=O)C(N)CNC(=O)[C@H](C2CCN=C(N)N2)NC(=O)/C(=C/Nc2nc(-c3ccc(Br)cc3)cs2)NC1=O (stereo partly drawn)
MIC (Pasteurella multocida): 3.13 µg/mL | MIC (Escherichia coli): 100 µg/mL | MIC (Enterococcus faecium [3]): 12.5 µg/mL | MIC (Enterococcus faecalis [4]): 50 µg/mL | MIC (Staphylococcus aureus): 12.5 µg/mL

C[C@@H]1NC(=O)C(N)CNC(=O)[C@H](C2CCN=C(N)N2)NC(=O)/C(=C/NC(N)=O)NC(=O)[C@H](CNC(=O)C[C@@H](N)CCCN)NC1=O.NCCC[C@H](N)CC(=O)NC[C@@H]1NC(=O)[C@H](CO)NC(=O)C(N)CNC(=O)[C@H](C2CCN=C(N)N2)NC(=O)/C(=C/NC(N)=O)NC1=O (stereo partly drawn) (H-[ξDap]S[Dap](β3hOrn)[ΔAla(Z-3-ureido)][X4]; lactam 1-C)
MIC (Pasteurella multocida): 50 µg/mL | MIC (Enterococcus faecalis [8]): > 1000 µg/mL | MIC (Escherichia coli): 200 µg/mL | MIC (Enterococcus faecium [3]): > 1000 µg/mL | MIC (Staphylococcus aureus): 100 µg/mL

NCCC[C@H](N)CC(=O)NC[C@@H]1NC(=O)[C@H](CO)NC(=O)C(N)CNC(=O)[C@H](C2CCN=C(N)N2)NC(=O)/C(=C/NC(=O)Nc2ccc(C3CCCCC3)cc2)NC1=O (stereo partly drawn) (H-[ξDap]S[Dap](β3hOrn)[ΔDap(Z)]([CO-NH(4-cHex-phenyl)])[X4]; lactam 1-C)
MIC (Pasteurella multocida): 0.39 µg/mL (≈ 0.472 µM) | MIC (Escherichia coli): 25 µg/mL (≈ 30.2 µM) | MIC (Enterococcus faecium [3]): 1.56 µg/mL (≈ 1.89 µM) | MIC (Enterococcus faecalis [4]): 3.12 µg/mL (≈ 3.77 µM) | MIC (Staphylococcus aureus): 1.56 µg/mL (≈ 1.89 µM)

C[C@@H]1NC(=O)C(N)CNC(=O)[C@H](C2CCN=C(N)N2)NC(=O)/C(=C/NC(=O)Nc2ccc(Cc3ccccc3)cc2)NC(=O)[C@H](CNC(=O)C[C@@H](N)CCCN)NC1=O.NCCC[C@H](N)CC(=O)NC[C@@H]1NC(=O)[C@H](CO)NC(=O)C(N)CNC(=O)[C@H](C2CCN=C(N)N2)NC(=O)/C(=C/NC(=O)Nc2ccc(Cc3ccccc3)cc2)NC1=O (stereo partly drawn) (H-[ξDap]S[Dap](β3hOrn)[ΔDap(Z)]([CO-X6])[X4]; lactam 1-C)
MIC (Pasteurella multocida): 0.78 µg/mL | MIC (Escherichia coli): 12.5 µg/mL | MIC (Enterococcus faecium [3]): 3.12 µg/mL | MIC (Enterococcus faecalis [4]): 6.25 µg/mL | MIC (Staphylococcus aureus): 1.56 µg/mL

NCCC[C@H](N)CC(=O)NC[C@@H]1NC(=O)[C@H](CO)NC(=O)C(N)CNC(=O)[C@H](C2CCN=C(N)N2)NC(=O)/C(=C/NC(=O)Nc2ccc(N3CCCCC3)cc2)NC1=O (stereo partly drawn) (H-[ξDap]S[Dap](β3hOrn)[ΔDap(Z)]([CO-X7])[X4]; lactam 1-C)
MIC (Pasteurella multocida): 1.56 µg/mL (≈ 1.88 µM) | MIC (Escherichia coli): 50 µg/mL (≈ 60.4 µM) | MIC (Enterococcus faecium [3]): 100 µg/mL (≈ 121 µM) | MIC (Enterococcus faecalis [4]): 100 µg/mL (≈ 121 µM) | MIC (Staphylococcus aureus): 3.12 µg/mL (≈ 3.77 µM)

C[C@@H]1NC(=O)C(N)CNC(=O)[C@H](C2CCN=C(N)N2)NC(=O)C(CNC(=O)Nc2ccc(I)c(Cl)c2)NC(=O)[C@H](CNC(=O)C[C@@H](N)CCCN)NC1=O.NCCC[C@H](N)CC(=O)NC[C@@H]1NC(=O)[C@H](CO)NC(=O)C(N)CNC(=O)[C@H](C2CCN=C(N)N2)NC(=O)C(CNC(=O)Nc2ccc(I)c(Cl)c2)NC1=O (stereo partly drawn) (H-[ξDap]S[Dap](β3hOrn)[ξDap]([CO-X5])[X4]; lactam 1-C)
MIC (Pasteurella multocida): 0.78 µg/mL | ED50 (Mus musculus [7]): 7 mg/kg | MIC (Escherichia coli): 6.25 µg/mL | MIC (Enterococcus faecium [3]): 12.5 µg/mL | MIC (Enterococcus faecalis [4]): 50 µg/mL | MIC (Staphylococcus aureus): 3.12 µg/mL

CN[C@H](CC(C)C)C(=O)N[C@H]1C(=O)N[C@@H](CC(N)=O)C(=O)N[C@H]2C(=O)N[C@H]3C(=O)N[C@H](C(=O)N[C@H](C(=O)O)c4cc(O)cc(O)c4-c4cc3ccc4O)[C@H](O)c3ccc(c(Cl)c3)Oc3cc2cc(c3O[C@@H]2O[C@H](CO)[C@@H](O)[C@H](O)[C@H]2O[C@H]2C[C@](C)(N)[C@H](O)[C@H](C)O2)Oc2ccc(cc2Cl)[C@H]1O [VANCOMYCIN]
MIC (Enterococcus faecium [3]): > 100 µg/mL | MIC (Enterococcus faecalis [4]): > 100 µg/mL | MIC (Staphylococcus aureus): 0.78 µg/mL (≈ 0.538 µM)
